US20100099561A1, “HETEROBICYCLIC ALKYLTHIO-BRIDGED ISOXAZOLINES” (E.I. DU PONT DE NEMOURS AND COMPANY, priority 2008, published 2010)

Columns and labels:
Type in all cases: in vivo
[1] = tested on: large crabgrass (Digitaria sanguinalis); assay: Test A preemergence, large crabgrass; conditions: 0 to 100 scale (0 no effect, 100 complete control)
Description: (§1) Seeds of barnyardgrass (Echinochloa crus-galli), large crabgrass (Digitaria sanguinalis), giant foxtail (Setaria faberi), morningglory (Ipomoea spp.), pigweed (Amaranthus retroflexus), velvetleaf (Abutilon theophrasti), wheat (Triticum aestivum), and corn (Zea mays) were planted into a blend of loam soil and sand and treated preemergence with a directed soil spray using test chemicals formulated in a non-phytotoxic solvent mixture which included a surfactant. At the same time these species were also treated with postemergence applications of test compounds formulated in the same manner. Plants ranged in height from two to ten cm and were in the one- to two-leaf stage for the postemergence treatment. Treated plants and untreated controls were maintained in a greenhouse for approximately ten days, after which time all treated plants were compared to untreated controls and visually evaluated for injury. Plant response ratings, summarized in Table A, are based on a 0 to 100 scale where 0 is no effect and 100 is complete control. A dash (-) response means no test result.

[2] = tested on: wheat (Triticum aestivum); assay: Test A preemergence, wheat; conditions: 0 to 100 scale (0 no effect, 100 complete control)
Description: as §1

[3] = tested on: barnyardgrass (Echinochloa crus-galli); assay: Test A preemergence, barnyardgrass; conditions: 0 to 100 scale (0 no effect, 100 complete control)
Description: as §1

[4] = tested on: wheat (Triticum aestivum); assay: Test A postemergence, wheat; conditions: 0 to 100 scale (0 no effect, 100 complete control)
Description: as §1

[5] = tested on: giant foxtail (Setaria faberi); assay: Test A preemergence, giant foxtail; conditions: 0 to 100 scale (0 no effect, 100 complete control)
Description: as §1

rice (Oryza sativa) = assay: Test B flooded paddy test, rice; conditions: Flood, scale 0 to 100
Description: (§2) Plant species in the flooded paddy test consisted of rice (Oryza sativa), umbrella sedge (Cyperus difformis), ducksalad (Heteranthera limosa) and barnyardgrass (Echinochloa crus-galli) grown to the 2-leaf stage for testing. At time of treatment, test pots were flooded to 3 cm above the soil surface, treated by application of test compounds directly to the paddy water, and then maintained at that water depth for the duration of the test. Treated plants and controls were maintained in a greenhouse for 13 to 15 days, after which time all species were compared to controls and visually evaluated. Plant response ratings, summarized in Table B, are based on a scale of 0 to 100 where 0 is no effect and 100 is complete control. A dash (-) response means no test result.

[6] = tested on: large crabgrass (Digitaria sanguinalis); assay: Test A postemergence, large crabgrass; conditions: 0 to 100 scale (0 no effect, 100 complete control)
Description: as §1

[7] = tested on: barnyardgrass (Echinochloa crus-galli); assay: Test A postemergence, barnyardgrass; conditions: 0 to 100 scale (0 no effect, 100 complete control)
Description: as §1

[8] = tested on: ducksalad (Heteranthera limosa); assay: Test B flooded paddy test, ducksalad; conditions: Flood, scale 0 to 100
Description: as §2

[9] = tested on: velvetleaf (Abutilon theophrasti); assay: Test A postemergence, velvetleaf; conditions: 0 to 100 scale (0 no effect, 100 complete control)
Description: as §1

corn (Zea mays) [10] = assay: Test A preemergence, corn; conditions: 0 to 100 scale (0 no effect, 100 complete control)
Description: as §1

[11] = tested on: morningglory (Ipomoea spp.); assay: Test A preemergence, morningglory; conditions: 0 to 100 scale (0 no effect, 100 complete control)
Description: as §1

corn (Zea mays) [12] = assay: Test A postemergence, corn; conditions: 0 to 100 scale (0 no effect, 100 complete control)
Description: as §1

[13] = tested on: pigweed (Amaranthus retroflexus); assay: Test A postemergence, pigweed; conditions: 0 to 100 scale (0 no effect, 100 complete control)
Description: as §1

[14] = tested on: giant foxtail (Setaria faberi); assay: Test A postemergence, giant foxtail; conditions: 0 to 100 scale (0 no effect, 100 complete control)
Description: as §1

[15] = tested on: barnyardgrass (Echinochloa crus-galli); assay: Test B flooded paddy test, barnyardgrass; conditions: Flood
Description: as §2

[16] = tested on: pigweed (Amaranthus retroflexus); assay: Test A preemergence, pigweed; conditions: 0 to 100 scale (0 no effect, 100 complete control)
Description: as §1

[17] = tested on: velvetleaf (Abutilon theophrasti); assay: Test A preemergence, velvetleaf; conditions: 0 to 100 scale (0 no effect, 100 complete control)
Description: as §1

[18] = tested on: morningglory (Ipomoea spp.); assay: Test A postemergence, morningglory; conditions: 0 to 100 scale (0 no effect, 100 complete control)
Description: as §1

[19] = tested on: umbrella sedge (Cyperus difformis); assay: Test B flooded paddy test, umbrella sedge; conditions: Flood, scale 0 to 100
Description: as §2

[20] = 250 g ai/ha, scale 0 to 100 (0 no effect, 100 complete control)

Structure (SMILES): Cc1con2c(=O)c(C[S+]([O-])C3=NOC(C)(C)C3)c(C(F)(F)F)nc12 (stereo not shown) [Compound 47]
- Plant response rating, Crabgrass, Large ([1]; 125 g ai/ha): 0
- Plant response rating, Crabgrass, Large ([1]; 500 g ai/ha): 20
- Plant response rating, Wheat ([2]; 125 g ai/ha): 0
- Plant response rating, Wheat ([2]; 500 g ai/ha): 0
- Plant response rating, Barnyardgrass ([3]; 125 g ai/ha): 0
- Plant response rating, Barnyardgrass ([3]; 500 g ai/ha): 70
- Plant response rating, Wheat ([4]; 125 g ai/ha): 0
- Plant response rating, Wheat ([4]; 500 g ai/ha): 0
- Plant response rating, Foxtail, Giant ([5]; 125 g ai/ha): 0
- Plant response rating, Foxtail, Giant ([5]; 500 g ai/ha): 30
- Plant response rating, Rice (rice (Oryza sativa); 62 g ai/ha): 0
- Plant response rating, Rice (rice (Oryza sativa); 250 g ai/ha): 0
- Plant response rating, Crabgrass, Large ([6]; 125 g ai/ha): 0
- Plant response rating, Crabgrass, Large ([6]; 500 g ai/ha): 60
- Plant response rating, Barnyardgrass ([7]; 125 g ai/ha): 0
- Plant response rating, Barnyardgrass ([7]; 500 g ai/ha): 50
- Plant response rating, Ducksalad ([8]; 62 g ai/ha): 0
- Plant response rating, Ducksalad ([8]; 250 g ai/ha): 0
- Plant response rating, Velvetleaf ([9]; 125 g ai/ha): 0
- Plant response rating, Velvetleaf ([9]; 500 g ai/ha): 0
- Plant response rating, Corn (corn (Zea mays) [10]; 125 g ai/ha): 0
- Plant response rating, Corn (corn (Zea mays) [10]; 500 g ai/ha): 0
- Plant response rating, Morningglory ([11]; 125 g ai/ha): 0
- Plant response rating, Morningglory ([11]; 500 g ai/ha): 0
- Plant response rating, Corn (corn (Zea mays) [12]; 125 g ai/ha): 0
- Plant response rating, Corn (corn (Zea mays) [12]; 500 g ai/ha): 20
- Plant response rating, Pigweed ([13]; 125 g ai/ha): 0
- Plant response rating, Pigweed ([13]; 500 g ai/ha): 0
- Plant response rating, Foxtail, Giant ([14]; 125 g ai/ha): 0
- Plant response rating, Foxtail, Giant ([14]; 500 g ai/ha): 60
- Plant response rating, Barnyardgrass ([15]; 62 g ai/ha, scale 0 to 100): 0
- Plant response rating, Barnyardgrass [15, 20]: 0
- Plant response rating, Pigweed ([16]; 125 g ai/ha): 0
- Plant response rating, Pigweed ([16]; 500 g ai/ha): 0
- Plant response rating, Velvetleaf ([17]; 125 g ai/ha): 0
- Plant response rating, Velvetleaf ([17]; 500 g ai/ha): 0
- Plant response rating, Morningglory ([18]; 125 g ai/ha): 0
- Plant response rating, Morningglory ([18]; 500 g ai/ha): 20
- Plant response rating, Sedge, Umbrella ([19]; 62 g ai/ha): 0
- Plant response rating, Sedge, Umbrella ([19]; 250 g ai/ha): 0

Structure (SMILES): CC1(C)CC([S+]([O-])Cc2c(C(F)(F)F)nc3n(c2=O)CCC3)=NO1 (stereo not drawn) [Compound 10, 3-[[(4,5-dihydro-5,5-dimethyl-3-isoxazolyl)sulfinyl]methyl]-7,8-dihydro-2-(trifluoromethyl)pyrrolo[1,2-α]pyrimidin-4(6H)-one]
- Plant response rating, Crabgrass, Large ([1]; 125 g ai/ha): 0
- Plant response rating, Crabgrass, Large ([1]; 500 g ai/ha): 80
- Plant response rating, Wheat ([2]; 125 g ai/ha): 0
- Plant response rating, Wheat ([2]; 500 g ai/ha): 30
- Plant response rating, Barnyardgrass ([3]; 125 g ai/ha): 0
- Plant response rating, Barnyardgrass ([3]; 500 g ai/ha): 70
- Plant response rating, Wheat ([4]; 125 g ai/ha): 0
- Plant response rating, Wheat ([4]; 500 g ai/ha): 20
- Plant response rating, Foxtail, Giant ([5]; 125 g ai/ha): 20
- Plant response rating, Foxtail, Giant ([5]; 500 g ai/ha): 80
- Plant response rating, Rice (rice (Oryza sativa); 31 g ai/ha): 0
- Plant response rating, Rice (rice (Oryza sativa); 62 g ai/ha): 0
- Plant response rating, Rice (rice (Oryza sativa); 125 g ai/ha): 0
- Plant response rating, Rice (rice (Oryza sativa); 250 g ai/ha): 0
- Plant response rating, Crabgrass, Large ([6]; 125 g ai/ha): 40
- Plant response rating, Crabgrass, Large ([6]; 500 g ai/ha): 70
- Plant response rating, Barnyardgrass ([7]; 125 g ai/ha): 30
- Plant response rating, Barnyardgrass ([7]; 500 g ai/ha): 80
- Plant response rating, Ducksalad ([8]; 31 g ai/ha): 0
- Plant response rating, Ducksalad ([8]; 62 g ai/ha): 0
- Plant response rating, Ducksalad ([8]; 125 g ai/ha): 0
- Plant response rating, Ducksalad ([8]; 250 g ai/ha): 0
- Plant response rating, Velvetleaf ([9]; 125 g ai/ha): 10
- Plant response rating, Velvetleaf ([9]; 500 g ai/ha): 40
- Plant response rating, Corn (corn (Zea mays) [10]; 125 g ai/ha): 0
- Plant response rating, Corn (corn (Zea mays) [10]; 500 g ai/ha): 10
- Plant response rating, Morningglory ([11]; 125 g ai/ha): 0
- Plant response rating, Morningglory ([11]; 500 g ai/ha): 0
- Plant response rating, Corn (corn (Zea mays) [12]; 125 g ai/ha): 0
- Plant response rating, Corn (corn (Zea mays) [12]; 500 g ai/ha): 20
- Plant response rating, Pigweed ([13]; 125 g ai/ha): 10
- Plant response rating, Pigweed ([13]; 500 g ai/ha): 30
- Plant response rating, Foxtail, Giant ([14]; 125 g ai/ha): 30
- Plant response rating, Foxtail, Giant ([14]; 500 g ai/ha): 70
- Plant response rating, Barnyardgrass ([15]; 31 g ai/ha, scale 0 to 100): 0
- Plant response rating, Barnyardgrass ([15]; 62 g ai/ha, scale 0 to 100): 0
- Plant response rating, Barnyardgrass ([15]; 125 g ai/ha, scale 0 to 100): 0
- Plant response rating, Barnyardgrass [15, 20]: 0
- Plant response rating, Pigweed ([16]; 125 g ai/ha): 0
- Plant response rating, Pigweed ([16]; 500 g ai/ha): 0
- Plant response rating, Velvetleaf ([17]; 125 g ai/ha): 0
- Plant response rating, Velvetleaf ([17]; 500 g ai/ha): 0
- Plant response rating, Morningglory ([18]; 125 g ai/ha): 10
- Plant response rating, Morningglory ([18]; 500 g ai/ha): 20
- Plant response rating, Sedge, Umbrella ([19]; 31 g ai/ha): 0
- Plant response rating, Sedge, Umbrella ([19]; 62 g ai/ha): 0
- Plant response rating, Sedge, Umbrella ([19]; 125 g ai/ha): 0
- Plant response rating, Sedge, Umbrella ([19]; 250 g ai/ha): 0
